Source: ChEMBL document CHEMBL6083245, “Digoxin and its Na+/K+-ATPase-targeted actions on cardiovascular diseases and cancer” (Bioorg Med Chem, 2024)

Legend:
Type in all cases: functional, cell-based
OVCAR-3 = experiment: Cytotoxicity against human OVCAR-3 cells assessed as reduction in cell growth incubated for 72 hrs by MTT assay; settings: OVCAR-3, 72 h
NCI-H1963 = experiment: Antiproliferative activity against human NCI-H1963 cells assessed as reduction in cell viability incubated for 48 hrs by Cell-titer Glo luminescent assay; settings: NCI-H1963, 48 h
MDA-MB-435 = experiment: Cytotoxicity against human MDA-MB-435 cells assessed as reduction in cell growth incubated for 72 hrs by MTT assay; settings: MDA-MB-435, 72 h
[1] = Antiproliferative activity against human NSCLC cells assessed as reduction in cell viability incubated for 48 hrs by Cell-titer Glo luminescent assay
SW-620 = experiment: Cytotoxicity against human SW620 cells assessed as reduction in cell growth incubated for 72 hrs by MTT assay; settings: SW-620, 72 h
HeLa = experiment: Antiproliferative activity against human HeLa cells assessed as reduction in cell viability by MTS assay
HCT-8 = experiment: Cytotoxicity against human HCT-8 cells assessed as reduction in cell growth incubated for 72 hrs by MTT assay; settings: HCT-8, 72 h
A549 = experiment: Antiproliferative activity against human A549 cells assessed as reduction in cell viability incubated for 48 hrs by Cell-titer Glo luminescent assay; settings: A549, 48 h
HT-29 = experiment: Cytotoxicity against human HT-29 cells assessed as reduction in cell growth incubated for 72 hrs by MTT assay; settings: HT-29, 72 h
NCI-H69 = experiment: Antiproliferative activity against human NCI-H69 cells assessed as reduction in cell viability incubated for 48 hrs by Cell-titer Glo luminescent assay; settings: NCI-H69, 48 h
NCI-H526 = experiment: Antiproliferative activity against human NCI-H526 cells assessed as reduction in cell viability incubated for 48 hrs by Cell-titer Glo luminescent assay; settings: NCI-H526, 48 h
NCI-H82 = experiment: Antiproliferative activity against human NCI-H82 cells assessed as reduction in cell viability incubated for 48 hrs by Cell-titer Glo luminescent assay; settings: NCI-H82, 48 h
MDA-MB-231 = experiment: Cytotoxicity against human MDA-MB-231 cells assessed as reduction in cell growth incubated for 72 hrs by MTT assay; settings: MDA-MB-231, 72 h
NCI-H1299 = experiment: Antiproliferative activity against human NCI-H1299 cells assessed as reduction in cell viability incubated for 48 hrs by Cell-titer Glo luminescent assay; settings: NCI-H1299, 48 h
[2] = Antiproliferative activity against human NCI-H196 cells assessed as reduction in cell viability incubated for 48 hrs by Cell-titer Glo luminescent assay; settings: NCI-H196, 48 h

Work on `C[C@H]1O[C@@H](O[C@H]2[C@@H](O)C[C@H](O[C@H]3[C@@H](O)C[C@H](O[C@H]4CC[C@@]5(C)[C@H](CC[C@@H]6[C@@H]5C[C@@H](O)[C@]5(C)[C@@H](C7=CC(=O)OC7)CC[C@]65O)C4)O[C@@H]3C)O[C@@H]2C)C[C@H](O)[C@@H]1O` [DIGOXIN] yielded an IC50 (OVCAR-3) of 0.1 µM, an IC50 (NCI-H1963) of 0.05 µM and an IC50 (MDA-MB-435) of 0.1 µM. It also gave an IC50 [1] of 0.05 µM, an IC50 (SW-620) of 0.1 µM and an IC50 (HeLa) of 0.0002 µM. It also gave an IC50 (HCT-8) of 0.1 µM, an IC50 (A549) of 0.05 µM and an IC50 (HT-29) of 0.1 µM. The IC50 (NCI-H69) was 0.05 µM, the IC50 (NCI-H526) was 0.05 µM and the IC50 (NCI-H82) was 0.05 µM. It also gave an IC50 (MDA-MB-231) of 0.1 µM, an IC50 (NCI-H1299) of 0.05 µM and an IC50 [2] of 0.05 µM.
